Laboratory results reported in BindingDB's records for doi:10.1016/j.bmcl.2016.06.017 (University of Pittsburgh, 2016).

Key:
[1] = molecular target: T1, Signal transducer and activator of transcription 1-alpha/beta (Homo sapiens, UniProt P42224); assay: Inhibition of IFNgamma-induced STAT1 (unknown origin)
T1 sequence (P42224 whole entry): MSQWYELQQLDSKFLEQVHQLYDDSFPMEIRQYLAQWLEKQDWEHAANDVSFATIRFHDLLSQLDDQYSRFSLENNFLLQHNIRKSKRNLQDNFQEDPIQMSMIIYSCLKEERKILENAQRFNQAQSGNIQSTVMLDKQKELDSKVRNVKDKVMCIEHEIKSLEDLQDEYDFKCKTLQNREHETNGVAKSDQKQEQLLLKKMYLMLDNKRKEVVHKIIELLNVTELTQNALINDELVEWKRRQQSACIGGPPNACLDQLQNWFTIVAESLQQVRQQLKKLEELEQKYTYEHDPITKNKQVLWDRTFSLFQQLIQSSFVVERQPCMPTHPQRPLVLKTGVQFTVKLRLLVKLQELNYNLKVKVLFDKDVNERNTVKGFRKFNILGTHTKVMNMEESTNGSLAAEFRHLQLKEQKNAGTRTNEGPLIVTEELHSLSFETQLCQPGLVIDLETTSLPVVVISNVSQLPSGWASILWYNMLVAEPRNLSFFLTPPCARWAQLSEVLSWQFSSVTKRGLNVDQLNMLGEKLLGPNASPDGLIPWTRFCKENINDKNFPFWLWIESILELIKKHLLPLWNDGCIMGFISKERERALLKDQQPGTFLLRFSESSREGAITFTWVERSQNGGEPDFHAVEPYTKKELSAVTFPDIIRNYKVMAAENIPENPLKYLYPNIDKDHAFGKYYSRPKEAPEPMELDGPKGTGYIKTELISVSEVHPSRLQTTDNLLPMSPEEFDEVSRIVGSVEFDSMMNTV

[2] = Inhibition of IL6-induced STAT3 in human CAL33 cells

IC50 [1]	IC50 [2]	Compound
> 50 µM	–	Clc1ccc(C2=Nn3c(nnc3-c3[nH]nc4c3CCC4)SC2)cc1Cl
> 50 µM	–	Clc1ccc(C2=Nn3c(nnc3-c3cc(-c4ccccc4)n[nH]3)SC2)cc1Cl
> 50 µM	–	Clc1ccc(C2=Nn3c(nnc3-c3[nH]nc4c3CCC4)SC2)cc1
> 50 µM	–	Clc1cccc(C2=Nn3c(nnc3-c3[nH]nc4c3CCC4)SC2)c1
> 50 µM	–	c1ccc(C2=Nn3c(nnc3-c3[nH]nc4c3CCC4)SC2)cc1
> 50 µM	–	c1ccc(C2=Nn3c(nnc3-c3cc(-c4ccccc4)[nH]n3)SC2)cc1
> 50 µM	3.7 µM	COc1ccc(C2=Nn3c(nnc3-c3cc(-c4ccccc4)n[nH]3)SC2)cc1
> 50 µM	> 50 µM	c1cc(C2=Nn3c(nnc3-c3[nH]nc4c3CCC4)SC2)ccn1
> 50 µM	> 50 µM	c1ccc(-c2cc(-c3nnc4n3N=C(c3ccncc3)CS4)[nH]n2)cc1
> 50 µM	–	Clc1ccc(C2=Nn3c(nnc3-c3[nH]nc4c3CCC4)SC2)s1
> 50 µM	> 50 µM	Clc1ccc(C2=Nn3c(nnc3-c3cc(-c4ccccc4)n[nH]3)SC2)s1
> 50 µM	> 50 µM	C1=Nn2c(nnc2-c2[nH]nc3c2CCC3)SC1
> 50 µM	> 50 µM	C1=Nn2c(nnc2-c2cc(-c3ccccc3)n[nH]2)SC1
> 50 µM	> 50 µM	CC1=Nn2c(nnc2-c2[nH]nc3c2CCC3)SC1
> 50 µM	> 50 µM	CC1=Nn2c(nnc2-c2cc(-c3ccccc3)[nH]n2)SC1
> 50 µM	> 30 µM	C1CCC(C2=Nn3c(nnc3-c3[nH]nc4c3CCC4)SC2)CC1
> 50 µM	> 50 µM	c1ccc(-c2cc(-c3nnc4n3N=C(C3CCCCC3)CS4)[nH]n2)cc1

IC50 [1]	IC50 [2]	Compound
–	> 50 µM	COc1ccc(C2CSc3nnc(-c4[nH]nc5c4CCC5)n3N2)cc1 (stereo not drawn)
–	> 50 µM	COc1ccc(C2CSc3nnc(-c4cc(-c5ccccc5)n[nH]4)n3N2C(C)=O)cc1 (stereo not drawn)
–	7.5 µM	Fc1ccc(-c2cc(-c3nnc4n3N=C(c3ccc(Cl)c(Cl)c3)CS4)[nH]n2)cc1
–	14.5 µM	Clc1ccc(-c2cc(-c3nnc4n3N=C(c3ccc(Cl)c(Cl)c3)CS4)[nH]n2)cc1
–	15.5 µM	Clc1ccc(C2=Nn3c(nnc3-c3[nH]nc4c3CCCC4)SC2)cc1Cl
> 50 µM	–	CC1Sc2nnc(-c3[nH]nc4c3CCC4)n2N=C1c1ccc(Cl)c(Cl)c1 (stereo not drawn)
> 50 µM	–	COc1ccc(C2=Nn3c(nnc3-c3[nH]nc4c3CCC4)SC2C)cc1 (stereo not drawn)
> 30 µM	–	CC1Sc2nnc(-c3cc(-c4ccc(F)cc4)n[nH]3)n2N=C1c1ccccc1 (stereo not drawn)
> 30 µM	–	COc1ccc(C2=Nn3c(nnc3-c3cc(-c4ccc(F)cc4)n[nH]3)SC2C)cc1 (stereo not drawn)
> 50 µM	–	CC(C)C1Sc2nnc(-c3[nH]nc4c3CCC4)n2N=C1c1ccc(Cl)c(Cl)c1 (stereo not drawn)
> 50 µM	–	COc1ccc(C2=Nn3c(nnc3-c3[nH]nc4c3CCC4)SC2C(C)C)cc1 (stereo not drawn)
> 50 µM	–	CC(C)CC1Sc2nnc(-c3[nH]nc4c3CCC4)n2N=C1c1ccc(Cl)c(Cl)c1 (stereo not drawn)
> 50 µM	–	COc1ccc(C2=Nn3c(nnc3-c3cc(-c4ccccc4)n[nH]3)SC2CC(C)C)cc1 (stereo not drawn)
> 50 µM	–	Clc1ccc(C2=Nn3c(nnc3-c3[nH]nc4c3CCC4)SC2Cc2ccccc2)cc1Cl (stereo not drawn)
> 50 µM	–	CC1(C)Sc2nnc(-c3[nH]nc4c3CCC4)n2N=C1c1ccc(Cl)c(Cl)c1
> 50 µM	–	Clc1ccc(C2=Nn3c(nnc3-c3cc(-c4ccccc4)[nH]n3)SC2)cc1 [MLS000558549]
